From ChEMBL document CHEMBL5518215, “Unlocking Antibacterial Potential: Key-Site-Based Regulation of Antibacterial Spectrum of Peptides” (J Med Chem, 2024)

What was measured:
[1] = Antimicrobial activity against Salmonella pullorum C7913 assessed as bacterial killing measured after 16 hrs incubation; type: functional, Salmonella enterica subsp. enterica serovar Pullorum; conditions: Salmonella enterica
Salmonella typhimurium [2] = experiment: Antimicrobial activity against Salmonella typhimurium C7731 assessed as bacterial killing measured after 16 hrs incubation; type: functional, Salmonella enterica subsp. enterica serovar Typhimurium; conditions: Salmonella enterica
Pseudomonas aeruginosa [3] = experiment: Antimicrobial activity against Pseudomonas aeruginosa 27853 assessed as absence bacterial growth measured after 18 to 24 hrs incubation by NCCLS method; type: functional; conditions: time 18-24 hrs
Enterococcus faecalis [4] = experiment: Antimicrobial activity against Enterococcus faecalis 29212 assessed as bacterial killing measured after 16 hrs incubation; type: functional
Bacillus cereus [5] = experiment: Antimicrobial activity against Bacillus cereus 1.932 assessed as absence bacterial growth measured after 18 to 24 hrs incubation by NCCLS method; type: functional; conditions: time 18-24 hrs
Escherichia coli [6] = experiment: Antimicrobial activity against Escherichia coli 25922 assessed as absence bacterial growth measured after 18 to 24 hrs incubation in presence of 50% serum by NCCLS method; type: functional; conditions: time 18-24 hrs
Acinetobacter baumannii [7] = experiment: Antimicrobial activity against Acinetobacter baumannii 1.6769 assessed as absence bacterial growth measured after 18 to 24 hrs incubation by NCCLS method; type: functional; conditions: time 18-24 hrs
Escherichia coli [8] = experiment: Antimicrobial activity against Escherichia coli 25922 assessed as absence bacterial growth measured after 18 to 24 hrs incubation in presence of NH4Cl by NCCLS method; type: functional; conditions: time 18-24 hrs
Bacillus cereus [9] = experiment: Antimicrobial activity against Bacillus cereus 1.932 assessed as bacterial killing measured after 16 hrs incubation; type: functional
Enterococcus faecalis [10] = experiment: Antimicrobial activity against Enterococcus faecalis 29212 assessed as absence bacterial growth measured after 18 to 24 hrs incubation by NCCLS method; type: functional; conditions: time 18-24 hrs
[11] = Antimicrobial activity against Salmonella pullorum C7913 assessed as absence bacterial growth measured after 18 to 24 hrs incubation by NCCLS method; type: functional, Salmonella enterica subsp. enterica serovar Pullorum; conditions: Salmonella enterica, time 18-24 hrs
Salmonella typhimurium [12] = experiment: Antimicrobial activity against Salmonella typhimurium 14028 assessed as absence bacterial growth measured after 18 to 24 hrs incubation by NCCLS method; type: functional, Salmonella enterica subsp. enterica serovar Typhimurium; conditions: Salmonella enterica, time 18-24 hrs
[13] = Cytotoxicity against mouse RAW264.7 cells assessed as cell survival rate measured after 8 hrs by MTT assay; type: toxicity, cell-based
Salmonella typhimurium [14] = experiment: Antimicrobial activity against Salmonella typhimurium 14028 assessed as bacterial killing measured after 16 hrs incubation; type: functional, Salmonella enterica subsp. enterica serovar Typhimurium; conditions: Salmonella enterica
Acinetobacter baumannii [15] = experiment: Antimicrobial activity against Acinetobacter baumannii 1.6769 assessed as bacterial killing measured after 16 hrs incubation; type: functional
Staphylococcus aureus [16] = experiment: Antimicrobial activity against Methicillin-resistant Staphylococcus aureus 43300 assessed as absence bacterial growth measured after 18 to 24 hrs incubation by NCCLS method; type: functional; conditions: time 18-24 hrs
Pseudomonas aeruginosa [17] = experiment: Antimicrobial activity against Pseudomonas aeruginosa 27853 assessed as bacterial killing measured after 16 hrs incubation; type: functional
Salmonella typhimurium [18] = experiment: Antimicrobial activity against Salmonella typhimurium C7731 assessed as absence bacterial growth measured after 18 to 24 hrs incubation by NCCLS method; type: functional, Salmonella enterica subsp. enterica serovar Typhimurium; conditions: Salmonella enterica, time 18-24 hrs
Listeria monocytogenes [19] = experiment: Antimicrobial activity against Listeria monocytogenes 1.10753 assessed as absence bacterial growth measured after 18 to 24 hrs incubation by NCCLS method; type: functional; conditions: time 18-24 hrs
Escherichia coli [20] = experiment: Antimicrobial activity against Escherichia coli 25922 assessed as absence bacterial growth measured after 18 to 24 hrs incubation in presence of KCl by NCCLS method; type: functional; conditions: time 18-24 hrs
Escherichia coli [21] = experiment: Antimicrobial activity against Escherichia coli 25922 assessed as absence bacterial growth measured after 18 to 24 hrs incubation in presence of ZnCl2 by NCCLS method; type: functional; conditions: time 18-24 hrs
Staphylococcus aureus [22] = experiment: Antimicrobial activity against Methicillin-resistant Staphylococcus aureus 43300 assessed as bacterial killing measured after 16 hrs incubation; type: functional
Escherichia coli [23] = experiment: Antimicrobial activity against Escherichia coli 25922 assessed as bacterial killing measured after 16 hrs incubation; type: functional
Escherichia coli [24] = experiment: Antimicrobial activity against Escherichia coli 25922 assessed as absence bacterial growth measured after 18 to 24 hrs incubation by NCCLS method; type: functional; conditions: time 18-24 hrs
Escherichia coli [25] = experiment: Antimicrobial activity against Escherichia coli 25922 assessed as absence bacterial growth measured after 18 to 24 hrs incubation in presence of 12.5% serum by NCCLS method; type: functional; conditions: time 18-24 hrs
Escherichia coli [26] = experiment: Antimicrobial activity against Escherichia coli 25922 assessed as absence bacterial growth measured after 18 to 24 hrs incubation in presence of 25% serum by NCCLS method; type: functional; conditions: time 18-24 hrs
Escherichia coli [27] = experiment: Antimicrobial activity against Escherichia coli 25922 assessed as absence bacterial growth measured after 18 to 24 hrs incubation in presence of MgCl2 by NCCLS method; type: functional; conditions: time 18-24 hrs
Staphylococcus aureus [28] = experiment: Antimicrobial activity against Staphylococcus aureus 29213 assessed as absence bacterial growth measured after 18 to 24 hrs incubation by NCCLS method; type: functional; conditions: time 18-24 hrs
Staphylococcus aureus [29] = experiment: Antimicrobial activity against Staphylococcus aureus 25923 assessed as bacterial killing measured after 16 hrs incubation; type: functional
Escherichia coli [30] = experiment: Antimicrobial activity against Escherichia coli K88 assessed as bacterial killing measured after 16 hrs incubation; type: functional
[31] = system: Staphylococcus epidermidis; experiment: Antimicrobial activity against Staphylococcus epidermidis 12228 assessed as absence bacterial growth measured after 18 to 24 hrs incubation by NCCLS method; type: functional; conditions: time 18-24 hrs
[32] = system: Staphylococcus epidermidis; experiment: Antimicrobial activity against Staphylococcus epidermidis 12228 assessed as bacterial killing measured after 16 hrs incubation; type: functional
Listeria monocytogenes [33] = experiment: Antimicrobial activity against Listeria monocytogenes 1.10753 assessed as bacterial killing measured after 16 hrs incubation; type: functional
Escherichia coli [34] = experiment: Antimicrobial activity against Escherichia coli 25922 assessed as absence bacterial growth measured after 18 to 24 hrs incubation in presence of NaCl by NCCLS method; type: functional; conditions: time 18-24 hrs
Escherichia coli [35] = experiment: Antimicrobial activity against Escherichia coli K88 assessed as absence bacterial growth measured after 18 to 24 hrs incubation by NCCLS method; type: functional; conditions: time 18-24 hrs
Staphylococcus aureus [36] = experiment: Antimicrobial activity against Staphylococcus aureus 29213 assessed as absence bacterial growth measured after 18 to 24 hrs incubation by NCCLS m; type: functional; conditions: time 18-24 hrs
Escherichia coli [37] = experiment: Antimicrobial activity against Escherichia coli 25922 assessed as absence bacterial growth measured after 18 to 24 hrs incubation in presence of FeCl3 by NCCLS method; type: functional; conditions: time 18-24 hrs
Staphylococcus aureus [38] = experiment: Antimicrobial activity against Staphylococcus aureus 29213 assessed as bacterial killing measured after 16 hrs incubation; type: functional
[39] = Cytotoxicity against human HEK-293T cells assessed as cell survival rate measured after 8 hrs by MTT assay; type: toxicity, cell-based
Erythrocyte = experiment: Hemolytic activity in human RBC at effective concentration measured after 1 hr by microplate reader analysis; type: toxicity, cell-based
[40] = Cytotoxicity against porcine IPEC-J2 cells assessed as cell survival rate measured after 8 hrs by MTT assay; type: toxicity, cell-based, Sus scrofa; conditions: pig

H-GKLWLKGIKLWLKGGKLWLKG-NH2
36.9 µM: IC50 at 8 h [13]
8 µM: MBC (Salmonella typhimurium [2]) | MBC (Enterococcus faecalis [4]) | MBC (Pseudomonas aeruginosa [17]) | MIC (Salmonella typhimurium [18]) | MIC (Escherichia coli [27]) | MIC (Staphylococcus aureus [28]) | MBC (Staphylococcus aureus [38])
18.9 µM: IC50 at 8 h [40]
2 µM: MIC (Bacillus cereus [5]) | MIC (Acinetobacter baumannii [7]) | MIC (Escherichia coli [8]) | MBC (Bacillus cereus [9]) | MIC (Salmonella typhimurium [12]) | MBC (Salmonella typhimurium [14]) | MBC (Acinetobacter baumannii [15]) | MIC (Staphylococcus aureus [16]) | MIC (Escherichia coli [20]) | MIC (Escherichia coli [21]) | MBC (Staphylococcus aureus [22]) | MBC (Escherichia coli [23]) | MIC (Escherichia coli [24]) | MIC (Escherichia coli [37])
4 µM: MIC (Pseudomonas aeruginosa [3]) | MIC (Enterococcus faecalis [10]) | MBC (Staphylococcus aureus [29]) | MIC [31] | MBC [32] | MIC (Escherichia coli [34]) | MIC (Staphylococcus aureus [36])
16 µM: MIC (Escherichia coli [25])
64 µM: HC10 (Erythrocyte)
> 32 µM: MIC (Escherichia coli [6]) | MIC (Listeria monocytogenes [19]) | MIC (Escherichia coli [26]) | MBC (Listeria monocytogenes [33])
33.5 µM: IC50 at 8 h [39]
1 µM: MBC [1] | MIC [11] | MBC (Escherichia coli [30]) | MIC (Escherichia coli [35])

H-GKLWLKGLKLWLKGGKLWLKG-NH2
32 µM: MBC (Pseudomonas aeruginosa [17])
16 µM: MBC (Salmonella typhimurium [2]) | MIC (Escherichia coli [25])
8 µM: MBC (Staphylococcus aureus [29])
32.7 µM: IC50 at 8 h [13]
47.2 µM: IC50 at 8 h [39]
21.1 µM: IC50 at 8 h [40]
64 µM: HC10 (Erythrocyte)
2 µM: MIC (Acinetobacter baumannii [7]) | MIC (Escherichia coli [8]) | MBC (Acinetobacter baumannii [15]) | MIC (Staphylococcus aureus [16]) | MIC (Escherichia coli [20]) | MIC (Escherichia coli [21]) | MBC (Staphylococcus aureus [22]) | MBC (Escherichia coli [23]) | MIC (Escherichia coli [24]) | MIC [31] | MIC (Escherichia coli [37])
1 µM: MBC [1] | MIC [11] | MIC (Salmonella typhimurium [12]) | MBC (Salmonella typhimurium [14]) | MBC (Escherichia coli [30]) | MIC (Escherichia coli [35])
> 32 µM: MIC (Escherichia coli [6]) | MIC (Listeria monocytogenes [19]) | MIC (Escherichia coli [26]) | MBC (Listeria monocytogenes [33])
4 µM: MIC (Pseudomonas aeruginosa [3]) | MBC (Enterococcus faecalis [4]) | MIC (Bacillus cereus [5]) | MBC (Bacillus cereus [9]) | MIC (Enterococcus faecalis [10]) | MIC (Salmonella typhimurium [18]) | MIC (Escherichia coli [27]) | MIC (Staphylococcus aureus [28]) | MBC [32] | MIC (Escherichia coli [34]) | MIC (Staphylococcus aureus [36]) | MBC (Staphylococcus aureus [38])

H-GKLWLKGMKLWLKGGKLWLKG-NH2
> 32 µM: MIC (Escherichia coli [6]) | MIC (Listeria monocytogenes [19]) | MIC (Escherichia coli [26]) | MBC (Listeria monocytogenes [33])
21 µM: IC50 at 8 h [40]
1 µM: MBC [1] | MIC (Bacillus cereus [5]) | MIC (Acinetobacter baumannii [7]) | MIC [11] | MBC (Acinetobacter baumannii [15]) | MBC (Escherichia coli [30]) | MIC (Escherichia coli [35])
4 µM: MIC (Pseudomonas aeruginosa [3]) | MIC (Enterococcus faecalis [10]) | MIC (Salmonella typhimurium [18]) | MIC (Staphylococcus aureus [28]) | MIC [31] | MBC [32] | MIC (Staphylococcus aureus [36]) | MBC (Staphylococcus aureus [38])
8 µM: MBC (Salmonella typhimurium [2]) | MBC (Enterococcus faecalis [4]) | MBC (Pseudomonas aeruginosa [17]) | MIC (Escherichia coli [27]) | MIC (Escherichia coli [34])
> 64 µM: IC50 at 8 h [13] | IC50 at 8 h [39]
128 µM: HC10 (Erythrocyte)
16 µM: MBC (Staphylococcus aureus [29])
32 µM: MIC (Escherichia coli [25])
2 µM: MIC (Escherichia coli [8]) | MBC (Bacillus cereus [9]) | MIC (Salmonella typhimurium [12]) | MBC (Salmonella typhimurium [14]) | MIC (Staphylococcus aureus [16]) | MIC (Escherichia coli [20]) | MIC (Escherichia coli [21]) | MBC (Staphylococcus aureus [22]) | MBC (Escherichia coli [23]) | MIC (Escherichia coli [24]) | MIC (Escherichia coli [37])
